Reference: US20240409585A1, “MACROCYCLIC IMMUNOMODULATORS” (priority 2021, published 2024)
Bridge positions count the residues as written; N and C are the ends. Square brackets hold non-standard residues; d marks the D form. Peptide text beside a SMILES is read from it. * marks the point of attachment. ξ: configuration not given here. Phe(4-COOH) = N[C@@H](Cc1ccc(C(=O)O)cc1)C(=O)O; Bip = N[C@@H](Cc1ccc(-c2ccccc2)cc1)C(=O)O; Phe(3-Cl) = N[C@@H](Cc1cccc(Cl)c1)C(=O)O; Phe(3-Me) = Cc1cccc(C[C@H](N)C(=O)O)c1; Val(3-OH) = CC(C)(O)[C@H](N)C(=O)O; 3Pal = N[C@@H](Cc1cccnc1)C(=O)O; 4Pal = N[C@@H](Cc1ccncc1)C(=O)O; Cha = N[C@@H](CC1CCCCC1)C(=O)O; Cit = NC(=O)NCCC[C@H](N)C(=O)O; Ile(3ξ) = CCC(C)[C@H](N)C(=O)O; Thr(3ξ) = CC(O)[C@H](N)C(=O)O; Dap(Me) = CNC[C@H](N)C(=O)O; Carboxymethyl = O=C(O)C*; NMeA = CN[C@@H](C)C(=O)O; Dab = NCC[C@H](N)C(=O)O

The compounds below were run against T1, PE-labeled human PD-L1-Ig binding to Jurkat cell line over-expressing human PD-1 (Jurkat-PD-1) (Homo sapiens, UniProt Q15116) (assay: Jurkat-PD-1 Cell Binding High-Content Screening Assay (CBA): Method 1). Details: Jurkat-hPD-1 cells, PE-labeled PD-L1-Ig 20 nM final; read-out: Jurkat HPDL1 PD1 IC50 (uM) (Method 1).
T1 construct: expressed in transfected cells; host or cells: Jurkat
T1 sequence (Q15116 25-288): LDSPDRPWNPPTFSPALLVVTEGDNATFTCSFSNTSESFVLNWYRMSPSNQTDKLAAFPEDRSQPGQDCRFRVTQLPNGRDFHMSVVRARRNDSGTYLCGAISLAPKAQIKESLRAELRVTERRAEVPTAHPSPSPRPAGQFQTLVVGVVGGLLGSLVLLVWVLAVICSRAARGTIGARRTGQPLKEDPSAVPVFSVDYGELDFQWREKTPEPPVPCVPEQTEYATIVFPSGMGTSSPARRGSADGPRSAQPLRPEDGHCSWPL

Compound	IC50
CC(C)C[C@@H]1NC(=O)[C@H](Cc2c[nH]c3ccccc23)NC(=O)[C@H](CC(=O)O)NC(=O)[C@H](Cc2ccc(C(=O)O)cc2)NC(=O)[C@H](Cc2cccnc2)NC(=O)CSC[C@@H](C(=O)N[C@@H](C)C(N)=O)NC(=O)[C@H](CO)NC(=O)[C@H](C(C)C)NC(=O)[C@H](CC(C)C)NC(=O)[C@H](CC(N)=O)NC(=O)[C@@H](C)NC(=O)[C@H](C)N(C)C(=O)[C@H](C(C)C)NC(=O)[C@H](Cc2ccc(-c3ccccc3)cc2)NC1=O [Compound 1747] ({CH2CO}-[3Pal][Phe(4-COOH)]DWL[Bip]V[NMeA][dA]NLVSCA-NH2; thioether N-14)	0.02 µM
CC(C)C[C@@H]1NC(=O)[C@H](Cc2c[nH]c3ccccc23)NC(=O)[C@H](CC(=O)O)NC(=O)[C@H](Cc2ccc(OCC(=O)O)cc2)NC(=O)[C@H](Cc2ccc(OCC(=O)O)cc2)NC(=O)CSC[C@@H](C(=O)N[C@@H](C)C(N)=O)NC(=O)[C@H](CO)NC(=O)[C@H](C(C)C)NC(=O)[C@H](CC(C)C)NC(=O)[C@H](CCN)NC(=O)[C@@H](CC(C)C)NC(=O)[C@H](C)N(C)C(=O)[C@H](C(C)C)NC(=O)[C@H](Cc2ccc(-c3ccccc3)cc2)NC1=O [Compound 2123] ({CH2CO}-Y(Carboxymethyl)Y(Carboxymethyl)DWL[Bip]V[NMeA][dL][Dab]LVSCA-NH2; thioether N-14)	0.02 µM
CC(C)C[C@@H]1NC(=O)[C@H](Cc2c[nH]c3ccccc23)NC(=O)[C@H](CC(=O)O)NC(=O)[C@H](Cc2ccc(O)cc2)NC(=O)[C@H](Cc2cccnc2)NC(=O)CSC[C@@H](C(=O)N[C@@H](C)C(N)=O)NC(=O)[C@H](CO)NC(=O)[C@H](C(C)C)NC(=O)[C@H](CC(C)C)NC(=O)[C@H](CC(N)=O)NC(=O)[C@@H](C)NC(=O)[C@H](C)N(C)C(=O)[C@H](C(C)C)NC(=O)[C@H](Cc2ccc(-c3ccccc3)cc2)NC1=O [Compound 1741] ({CH2CO}-[3Pal]YDWL[Bip]V[NMeA][dA]NLVSCA-NH2; thioether N-14)	0.02 µM
CC(C)C[C@@H]1NC(=O)[C@H](Cc2c[nH]c3ccccc23)NC(=O)[C@H](CC(=O)O)NC(=O)[C@H](Cc2ccc(O)cc2)NC(=O)[C@H](Cc2ccccc2)NC(=O)CSC[C@@H](C(=O)NCC(N)=O)NC(=O)[C@H](CO)NC(=O)[C@H](C(C)C)NC(=O)[C@H](CC(C)C)NC(=O)[C@H](CCN)NC(=O)[C@@H](CC(C)C)NC(=O)[C@H](C)N(C)C(=O)[C@H](CCCNC(N)=O)NC(=O)[C@H](Cc2ccc(-c3ccccc3)cc2)NC1=O [Compound 1512] ({CH2CO}-FYDWL[Bip][Cit][NMeA][dL][Dab]LVSCG-NH2; thioether N-14)	0.02 µM
CNC[C@@H]1NC(=O)CSC[C@@H](C(=O)N[C@@H](C)C(N)=O)NC(=O)[C@H](C(C)O)NC(=O)[C@H](C(C)C)NC(=O)[C@H](CC(C)C)NC(=O)[C@H](CCN)NC(=O)[C@@H](CC(C)C)NC(=O)[C@H](C)N(C)C(=O)[C@H](CCCNC(N)=O)NC(=O)[C@H](Cc2ccc(-c3ccccc3)cc2)NC(=O)[C@H](C(C)C)NC(=O)[C@H](Cc2c[nH]c3ccccc23)NC(=O)[C@H](CC(=O)O)NC(=O)[C@H](Cc2ccc(O)cc2)NC1=O (stereo partly drawn) [Compound 2034] ({CH2CO}-[Dap(Me)]YDWV[Bip][Cit][NMeA][dL][Dab]LV[Thr(3ξ)]CA-NH2; thioether N-14)	0.06 µM
CC(C)C[C@@H]1NC(=O)[C@H](CCCNC(=N)N)NC(=O)[C@@H](CC(C)C)NC(=O)[C@H](C)N(C)C(=O)[C@H](CCCNC(=N)N)NC(=O)[C@H](Cc2ccc(-c3ccccc3)cc2)NC(=O)[C@H](C(C)C)NC(=O)[C@H](Cc2c[nH]c3ccccc23)NC(=O)[C@H](CC(=O)O)NC(=O)[C@H](Cc2ccncc2)NC(=O)[C@H](Cc2ccccc2)NC(=O)CSC[C@@H](C(=O)N[C@@H](C)C(N)=O)NC(=O)[C@H]([C@@H](C)O)NC(=O)[C@H](C(C)C)NC1=O [Compound 1085] ({CH2CO}-F[4Pal]DWV[Bip]R[NMeA][dL]RLVTCA-NH2; thioether N-14)	0.07 µM
CCC(C)[C@@H]1NC(=O)[C@H](Cc2ccc(-c3ccccc3)cc2)NC(=O)[C@H](CC(C)C)NC(=O)[C@H](Cc2c[nH]c3ccccc23)NC(=O)[C@H](CC(=O)O)NC(=O)[C@H](Cc2ccc(C(=O)O)cc2)NC(=O)[C@H](Cc2ccc(OCC(=O)O)cc2)NC(=O)CSC[C@@H](C(=O)N[C@@H](CC(N)=O)C(N)=O)NC(=O)[C@H]([C@@H](C)O)NC(=O)[C@H](C(C)C)NC(=O)[C@H](CC2CCCCC2)NC(=O)[C@H](CCN)NC(=O)[C@@H](CC(C)C)NC(=O)[C@H](C)N(C)C1=O (stereo partly drawn) [Compound 1922] ({CH2CO}-Y(Carboxymethyl)[Phe(4-COOH)]DWL[Bip][Ile(3ξ)][NMeA][dL][Dab][Cha]VTCN-NH2; thioether N-14)	0.04 µM

Results, then the compound that gave them:

IC50	Compound
0.02 µM	CC(=O)NCC[C@H](NC(=O)[C@@H]1CSCC(=O)N[C@@H](Cc2ccncc2)C(=O)N[C@@H](Cc2ccc(OCC(=O)O)cc2)C(=O)N[C@@H](CC(=O)O)C(=O)N[C@@H](Cc2cccc(C)c2)C(=O)N[C@@H](Cc2ccc(C(=O)O)cc2)C(=O)N[C@@H](Cc2ccc(-c3ccccc3)cc2)C(=O)N[C@@H](Cc2ccc(OCC(=O)O)cc2)C(=O)N(C)[C@@H](C)C(=O)N[C@H](CC(C)C)C(=O)N[C@@H](CCN)C(=O)N[C@@H](CC2CCCCC2)C(=O)N[C@@H](C(C)(C)O)C(=O)N[C@@H](Cc2cnc[nH]2)C(=O)N1)C(N)=O [Compound 2162] ({CH2CO}-[4Pal]Y(Carboxymethyl)D[Phe(3-Me)][Phe(4-COOH)][Bip]Y(Carboxymethyl)[NMeA][dL][Dab][Cha][Val(3-OH)]HC[Dab](Ac)-NH2; thioether N-14)
0.01 µM	CC[C@H](C)[C@@H]1NC(=O)[C@H](Cc2ccc(-c3ccccc3)cc2)NC(=O)[C@H](C(C)C)NC(=O)[C@H](Cc2c[nH]c3ccccc23)NC(=O)[C@H](CC(=O)O)NC(=O)[C@H](Cc2ccc(OCC(=O)O)cc2)NC(=O)[C@H](Cc2ccc(OCC(=O)O)cc2)NC(=O)CSC[C@@H](C(=O)N[C@@H](C)C(N)=O)NC(=O)[C@H]([C@@H](C)O)NC(=O)[C@H](C(C)C)NC(=O)[C@H](CC(C)C)NC(=O)[C@H](CCN)NC(=O)[C@@H](CC(C)C)NC(=O)[C@H](C)N(C)C1=O [Compound 1568] ({CH2CO}-Y(Carboxymethyl)Y(Carboxymethyl)DWV[Bip]I[NMeA][dL][Dab]LVTCA-NH2; thioether N-14)
0.01 µM	CC(C)C[C@@H]1NC(=O)[C@H](CCN)NC(=O)[C@@H](CC(C)C)NC(=O)[C@H](C)N(C)C(=O)[C@H](C(C)C)NC(=O)[C@H](Cc2ccc(-c3ccccc3)cc2)NC(=O)[C@H](C(C)C)NC(=O)[C@H](Cc2cccc(Cl)c2)NC(=O)[C@H](CC(=O)O)NC(=O)[C@H](Cc2ccc(O)cc2)NC(=O)[C@H](CC(N)=O)NC(=O)CSC[C@@H](C(=O)N[C@@H](C)C(N)=O)NC(=O)[C@H]([C@@H](C)O)NC(=O)[C@H](C(C)C)NC1=O [Compound 1265] ({CH2CO}-NYD[Phe(3-Cl)]V[Bip]V[NMeA][dL][Dab]LVTCA-NH2; thioether N-14)
0.01 µM	CC(C)C[C@@H]1NC(=O)[C@H](Cc2c[nH]c3ccccc23)NC(=O)[C@H](CC(=O)O)NC(=O)[C@H](Cc2ccc(C(=O)O)cc2)NC(=O)[C@H](Cc2ccc(OCC(=O)O)cc2)NC(=O)CSC[C@@H](C(N)=O)NC(=O)[C@H](CO)NC(=O)[C@H](C(C)C)NC(=O)[C@H](CC2CCCCC2)NC(=O)[C@H](CCN)NC(=O)[C@@H](CC(C)C)NC(=O)[C@H](C)N(C)C(=O)[C@H](C(C)C)NC(=O)[C@H](Cc2ccc(-c3ccccc3)cc2)NC1=O [Compound 1426] ({CH2CO}-Y(Carboxymethyl)[Phe(4-COOH)]DWL[Bip]V[NMeA][dL][Dab][Cha]VSC-NH2; thioether N-14)
